From ChEMBL document CHEMBL4425152, “New P2X3 receptor antagonists. Part 1: Discovery and optimization of tricyclic compounds” (Bioorg Med Chem Lett, 2016)

assay: in vitro; settings: human, Caco-2

Compound	Papp
COc1cc(C(C)C)c(Oc2cnc(N)nc2N)cc1S(N)(=O)=O [GEFAPIXANT]	0.7 ×10⁻⁶ cm/s
COc1ccc(OC)c(CCn2cnc3sc4c(c3c2=O)CCC(C(=O)N(C)C)C4)c1 (stereo not drawn)	46.8 ×10⁻⁶ cm/s
COc1cc(C(C)C)c(Oc2cnc(N)nc2N)cc1I	30.6 ×10⁻⁶ cm/s
